Laboratory results reported in publication PMC12090182, “Repurposing of the RIPK1-Selective Benzo[1,4]oxazepin-4-one Scaffold for the Development of a Type III LIMK1/2 Inhibitor” (ACS Chemical Biology, 2025).

Legend:
Assay in all cases: biochemical
Format in all cases: binding
[1] = target: 468 kinases including some pathogenic mutants (Homo sapiens, UniProt Q08881); settings: ITK (Entrez ITK), 100 nM; read-out: Percent Control
[2] = target: 468 kinases including some pathogenic mutants (Homo sapiens, UniProt Q9Y2U5); settings: MAP3K2 (Entrez MAP3K2), 1000 nM; read-out: Percent Control
[3] = target: 468 kinases including some pathogenic mutants (Homo sapiens, UniProt Q6XUX3); settings: RIPK5 (Entrez DSTYK), 1000 nM; read-out: Percent Control
[4] = target: 468 kinases including some pathogenic mutants (Homo sapiens, UniProt P22694); settings: PKAC-beta (Entrez PRKACB), 100 nM; read-out: Percent Control
[5] = target: 468 kinases including some pathogenic mutants (Homo sapiens, UniProt Q02779); settings: MLK2 (Entrez MAP3K10), 100 nM; read-out: Percent Control
[6] = target: 468 kinases including some pathogenic mutants (Homo sapiens, UniProt P16591); settings: FER (Entrez FER), 100 nM; read-out: Percent Control
[7] = target: 468 kinases including some pathogenic mutants (Homo sapiens, UniProt P28482); settings: ERK2 (Entrez MAPK1), 100 nM; read-out: Percent Control
[8] = target: 468 kinases including some pathogenic mutants (Homo sapiens, UniProt O43293); settings: DAPK3 (Entrez DAPK3), 100 nM; read-out: Percent Control
[9] = target: 468 kinases including some pathogenic mutants (Homo sapiens, UniProt P42336, Q546K); settings: read-out: Percent Control
[10] = target: 468 kinases including some pathogenic mutants (Homo sapiens, UniProt Q9H4B4); settings: PLK3 (Entrez PLK3), 1000 nM; read-out: Percent Control
[11] = target: 468 kinases including some pathogenic mutants (Homo sapiens, UniProt Q13470); settings: TNK1 (Entrez TNK1), 100 nM; read-out: Percent Control
[12] = target: 468 kinases including some pathogenic mutants (Homo sapiens, UniProt Q13627); settings: DYRK1A (Entrez DYRK1A), 100 nM; read-out: Percent Control
[13] = target: 468 kinases including some pathogenic mutants (Homo sapiens, UniProt O00444); settings: PLK4 (Entrez PLK4), 100 nM; read-out: Percent Control
[14] = target: 468 kinases including some pathogenic mutants (Homo sapiens, UniProt O15530); settings: PDPK1 (Entrez PDPK1), 100 nM; read-out: Percent Control
[15] = target: 468 kinases including some pathogenic mutants (Homo sapiens, UniProt P11309); settings: PIM1 (Entrez PIM1), 100 nM; read-out: Percent Control
[16] = target: 468 kinases including some pathogenic mutants (Homo sapiens, UniProt Q9H2X6); settings: HIPK2 (Entrez HIPK2), 100 nM; read-out: Percent Control
[17] = target: 468 kinases including some pathogenic mutants (Homo sapiens, UniProt Q9UK32); settings: read-out: Percent Control
[18] = target: 468 kinases including some pathogenic mutants (Homo sapiens, UniProt P45983); settings: JNK1 (Entrez MAPK8), 1000 nM; read-out: Percent Control
[19] = target: 468 kinases including some pathogenic mutants (Homo sapiens, UniProt P54762); settings: EPHB1 (Entrez EPHB1), 100 nM; read-out: Percent Control
[20] = target: 468 kinases including some pathogenic mutants (Homo sapiens, UniProt P00519, Y253F); settings: read-out: Percent Control
[21] = target: 468 kinases including some pathogenic mutants (Homo sapiens, UniProt P29322); settings: EPHA8 (Entrez EPHA8), 100 nM; read-out: Percent Control
[22] = target: 468 kinases including some pathogenic mutants (Homo sapiens, UniProt O43283); settings: LZK (Entrez MAP3K13), 100 nM; read-out: Percent Control
[23] = target: 468 kinases including some pathogenic mutants (Homo sapiens, UniProt Q13464); settings: ROCK1 (Entrez ROCK1), 100 nM; read-out: Percent Control
[24] = target: 468 kinases including some pathogenic mutants (Homo sapiens, UniProt Q00537); settings: PCTK2 (Entrez CDK17), 100 nM; read-out: Percent Control
[25] = target: 468 kinases including some pathogenic mutants (Homo sapiens, UniProt Q9NSY1); settings: BIKE (Entrez BMP2K), 100 nM; read-out: Percent Control
[26] = target: 468 kinases including some pathogenic mutants (Homo sapiens, UniProt Q86V86); settings: PIM3 (Entrez PIM3), 100 nM; read-out: Percent Control
[27] = target: 468 kinases including some pathogenic mutants (Homo sapiens, UniProt Q16288); settings: TRKC (Entrez NTRK3), 100 nM; read-out: Percent Control
[28] = target: 468 kinases including some pathogenic mutants (Homo sapiens, UniProt Q13705); settings: ACVR2B (Entrez ACVR2B), 100 nM; read-out: Percent Control

468 kinases including some pathogenic mutants (Homo sapiens, UniProt Q9UK32), sequence (Q9UK32 whole entry, change not shown): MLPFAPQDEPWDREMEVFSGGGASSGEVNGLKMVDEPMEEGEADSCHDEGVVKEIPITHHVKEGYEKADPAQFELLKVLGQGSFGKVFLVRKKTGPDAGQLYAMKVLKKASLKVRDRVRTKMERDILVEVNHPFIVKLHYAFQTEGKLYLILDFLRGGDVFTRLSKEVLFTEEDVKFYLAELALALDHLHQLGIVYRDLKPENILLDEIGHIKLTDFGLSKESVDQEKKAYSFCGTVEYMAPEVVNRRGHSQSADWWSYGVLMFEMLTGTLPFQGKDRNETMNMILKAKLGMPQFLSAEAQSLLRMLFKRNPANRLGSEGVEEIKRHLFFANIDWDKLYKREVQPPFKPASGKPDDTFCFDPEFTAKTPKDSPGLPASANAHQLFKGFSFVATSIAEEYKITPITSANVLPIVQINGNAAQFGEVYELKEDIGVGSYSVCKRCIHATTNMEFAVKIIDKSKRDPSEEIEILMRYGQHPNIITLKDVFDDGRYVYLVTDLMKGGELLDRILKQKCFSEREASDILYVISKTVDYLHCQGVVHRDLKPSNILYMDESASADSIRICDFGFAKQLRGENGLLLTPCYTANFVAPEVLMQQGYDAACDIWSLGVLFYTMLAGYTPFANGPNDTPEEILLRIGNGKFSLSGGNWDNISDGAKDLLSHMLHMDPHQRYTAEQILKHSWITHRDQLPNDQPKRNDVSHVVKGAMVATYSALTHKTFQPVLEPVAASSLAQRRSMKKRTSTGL
468 kinases including some pathogenic mutants (Homo sapiens, UniProt O00444), sequence (O00444 whole entry, change not shown): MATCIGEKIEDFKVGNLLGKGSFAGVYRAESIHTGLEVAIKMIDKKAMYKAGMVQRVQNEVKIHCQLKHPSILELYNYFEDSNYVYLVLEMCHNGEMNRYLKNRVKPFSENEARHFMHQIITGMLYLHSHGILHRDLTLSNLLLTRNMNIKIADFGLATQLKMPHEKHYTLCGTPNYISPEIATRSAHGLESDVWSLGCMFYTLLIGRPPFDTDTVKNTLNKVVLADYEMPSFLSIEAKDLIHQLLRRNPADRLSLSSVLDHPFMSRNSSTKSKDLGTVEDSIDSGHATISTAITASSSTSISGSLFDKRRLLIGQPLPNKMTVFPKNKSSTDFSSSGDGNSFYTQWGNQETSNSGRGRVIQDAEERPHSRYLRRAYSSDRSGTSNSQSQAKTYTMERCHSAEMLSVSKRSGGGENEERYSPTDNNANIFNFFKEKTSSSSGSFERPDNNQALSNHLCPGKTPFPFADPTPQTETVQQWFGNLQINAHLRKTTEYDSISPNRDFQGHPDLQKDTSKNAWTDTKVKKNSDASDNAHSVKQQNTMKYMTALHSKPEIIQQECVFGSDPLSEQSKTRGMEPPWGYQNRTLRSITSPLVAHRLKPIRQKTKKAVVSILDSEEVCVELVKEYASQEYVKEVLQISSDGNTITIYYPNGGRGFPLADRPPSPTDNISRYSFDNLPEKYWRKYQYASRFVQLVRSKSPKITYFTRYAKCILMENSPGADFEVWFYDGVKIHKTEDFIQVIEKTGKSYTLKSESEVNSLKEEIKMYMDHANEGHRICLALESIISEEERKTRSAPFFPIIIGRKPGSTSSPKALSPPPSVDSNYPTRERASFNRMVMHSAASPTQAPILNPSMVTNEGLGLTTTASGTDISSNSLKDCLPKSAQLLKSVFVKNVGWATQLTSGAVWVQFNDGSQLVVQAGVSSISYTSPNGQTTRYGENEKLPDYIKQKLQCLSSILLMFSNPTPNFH
468 kinases including some pathogenic mutants (Homo sapiens, UniProt P11309), sequence (P11309 whole entry, change not shown): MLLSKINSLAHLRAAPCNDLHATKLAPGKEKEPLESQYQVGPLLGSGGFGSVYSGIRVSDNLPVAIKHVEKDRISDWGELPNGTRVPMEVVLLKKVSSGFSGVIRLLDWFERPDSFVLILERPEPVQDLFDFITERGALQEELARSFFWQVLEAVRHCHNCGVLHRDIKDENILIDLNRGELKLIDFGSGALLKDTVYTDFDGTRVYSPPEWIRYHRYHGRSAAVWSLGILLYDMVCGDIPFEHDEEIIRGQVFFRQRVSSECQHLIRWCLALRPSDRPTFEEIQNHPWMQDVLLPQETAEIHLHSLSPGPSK
468 kinases including some pathogenic mutants (Homo sapiens, UniProt Q00537), sequence (Q00537 whole entry, change not shown): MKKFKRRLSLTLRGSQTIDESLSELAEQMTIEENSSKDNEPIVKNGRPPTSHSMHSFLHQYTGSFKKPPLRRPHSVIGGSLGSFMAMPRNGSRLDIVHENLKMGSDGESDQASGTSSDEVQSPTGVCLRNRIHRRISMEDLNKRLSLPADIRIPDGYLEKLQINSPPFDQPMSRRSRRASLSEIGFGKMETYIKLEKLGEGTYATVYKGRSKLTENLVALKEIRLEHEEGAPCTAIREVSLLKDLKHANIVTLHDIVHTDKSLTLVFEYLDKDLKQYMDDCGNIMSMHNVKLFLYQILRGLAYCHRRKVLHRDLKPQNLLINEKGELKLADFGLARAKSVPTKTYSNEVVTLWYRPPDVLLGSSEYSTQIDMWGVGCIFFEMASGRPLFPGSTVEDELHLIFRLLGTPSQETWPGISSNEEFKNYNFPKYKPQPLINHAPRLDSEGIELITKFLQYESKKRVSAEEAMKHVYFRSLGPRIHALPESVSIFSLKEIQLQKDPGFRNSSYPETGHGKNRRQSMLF
468 kinases including some pathogenic mutants (Homo sapiens, UniProt P16591), sequence (P16591 whole entry, change not shown): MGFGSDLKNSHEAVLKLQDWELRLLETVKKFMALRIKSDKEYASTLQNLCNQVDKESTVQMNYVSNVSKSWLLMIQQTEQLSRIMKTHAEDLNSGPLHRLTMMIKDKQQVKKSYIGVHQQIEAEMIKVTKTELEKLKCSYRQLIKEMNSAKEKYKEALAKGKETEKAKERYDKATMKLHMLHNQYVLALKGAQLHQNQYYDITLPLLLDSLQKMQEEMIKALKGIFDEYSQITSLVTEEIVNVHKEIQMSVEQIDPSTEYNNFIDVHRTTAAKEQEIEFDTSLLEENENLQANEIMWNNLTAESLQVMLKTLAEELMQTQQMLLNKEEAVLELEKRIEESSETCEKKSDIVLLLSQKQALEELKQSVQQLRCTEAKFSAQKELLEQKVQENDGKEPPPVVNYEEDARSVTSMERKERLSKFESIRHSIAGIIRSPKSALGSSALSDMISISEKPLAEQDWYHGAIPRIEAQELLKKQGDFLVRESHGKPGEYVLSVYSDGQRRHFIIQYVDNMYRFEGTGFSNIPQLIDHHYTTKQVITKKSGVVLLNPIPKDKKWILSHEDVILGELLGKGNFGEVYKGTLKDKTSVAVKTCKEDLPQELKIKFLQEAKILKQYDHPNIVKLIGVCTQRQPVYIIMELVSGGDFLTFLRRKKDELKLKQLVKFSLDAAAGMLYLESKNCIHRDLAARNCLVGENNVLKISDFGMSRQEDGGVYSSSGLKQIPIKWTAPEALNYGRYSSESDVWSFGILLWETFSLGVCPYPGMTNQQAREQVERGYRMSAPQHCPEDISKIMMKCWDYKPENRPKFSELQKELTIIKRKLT
468 kinases including some pathogenic mutants (Homo sapiens, UniProt P54762), sequence (P54762 18-984, stated change not applied): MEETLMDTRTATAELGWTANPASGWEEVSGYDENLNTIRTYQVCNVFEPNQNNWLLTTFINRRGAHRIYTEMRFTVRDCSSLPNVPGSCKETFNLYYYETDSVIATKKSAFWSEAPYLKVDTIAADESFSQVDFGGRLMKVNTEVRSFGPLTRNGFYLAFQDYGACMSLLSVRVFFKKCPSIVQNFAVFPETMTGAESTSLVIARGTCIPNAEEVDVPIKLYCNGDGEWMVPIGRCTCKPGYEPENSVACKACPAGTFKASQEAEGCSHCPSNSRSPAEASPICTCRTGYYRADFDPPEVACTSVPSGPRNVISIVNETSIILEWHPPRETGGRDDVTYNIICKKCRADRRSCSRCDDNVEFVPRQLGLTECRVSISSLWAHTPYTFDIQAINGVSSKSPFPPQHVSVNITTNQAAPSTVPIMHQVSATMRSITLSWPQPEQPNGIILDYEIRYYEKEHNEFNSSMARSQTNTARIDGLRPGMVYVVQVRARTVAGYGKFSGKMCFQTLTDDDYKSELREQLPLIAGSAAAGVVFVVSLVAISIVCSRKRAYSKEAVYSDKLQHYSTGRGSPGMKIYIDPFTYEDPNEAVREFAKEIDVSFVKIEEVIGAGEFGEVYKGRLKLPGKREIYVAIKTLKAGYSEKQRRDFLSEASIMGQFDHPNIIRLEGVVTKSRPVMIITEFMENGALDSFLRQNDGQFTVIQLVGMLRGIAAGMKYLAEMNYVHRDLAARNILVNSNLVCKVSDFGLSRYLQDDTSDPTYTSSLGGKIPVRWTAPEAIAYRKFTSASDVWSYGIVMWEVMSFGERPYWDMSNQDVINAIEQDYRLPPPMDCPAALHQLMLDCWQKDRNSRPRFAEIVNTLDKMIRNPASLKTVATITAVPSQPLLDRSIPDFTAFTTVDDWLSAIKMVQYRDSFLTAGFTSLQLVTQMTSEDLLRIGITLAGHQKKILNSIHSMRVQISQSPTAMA

CN1C(=O)[C@@H](N2CCc3c(nn(Cc4ccccc4)c3C(N)=O)C2=O)COc2cc(Cl)ccc21 [Compound 10, (S)-2-benzyl-6-(8-chloro-5-methyl-4-oxo-2,3,4,5-tetrahydrobenzo[b][1,4]oxazepin-3-yl)-7-oxo-4,5,6,7-tetrahydro-2H-pyrazolo[3,4-c]pyridine-3-carboxamide]
remaining activity at 0.1 µM [1]: 79% | remaining activity at 1 µM [2]: 100% | remaining activity at 1 µM [3]: 100% | remaining activity at 0.1 µM [4]: 56% | remaining activity at 0.1 µM [5]: 64% | remaining activity at 0.1 µM [6]: 100% | remaining activity at 0.1 µM [7]: 77% | remaining activity at 0.1 µM [8]: 79% | remaining activity at 0.1 µM [9]: 76% | remaining activity at 1 µM [10]: 100% | remaining activity at 0.1 µM [11]: 78% | remaining activity at 0.1 µM [12]: 89% | remaining activity at 0.1 µM [13]: 58% | remaining activity at 0.1 µM [14]: 100% | remaining activity at 0.1 µM [15]: 93% | remaining activity at 0.1 µM [16]: 78% | remaining activity at 1 µM ([17]; RSK4(Kin.Dom.1-N-terminal) (Entrez RPS6KA6), 1000 nM): 100% | remaining activity at 0.1 µM ([17]; RSK4(Kin.Dom.2-C-terminal) (Entrez RPS6KA6), 100 nM): 90% | remaining activity at 1 µM [18]: 100% | remaining activity at 0.1 µM [19]: 95% | remaining activity at 0.1 µM [20]: 76% | remaining activity at 0.1 µM [21]: 87% | remaining activity at 0.1 µM [22]: 100% | remaining activity at 0.1 µM [23]: 76% | remaining activity at 0.1 µM [24]: 83% | remaining activity at 0.1 µM [25]: 67% | remaining activity at 0.1 µM [26]: 87% | remaining activity at 0.1 µM [27]: 79% | remaining activity at 0.1 µM [28]: 92%
